In brackets after ≈: the same amount, converted by molar mass. Structures can show the parent of a compound that is named as a salt.
Key:
[1] = Dynamic vapor sorption measurement; format: physicochemical; conditions: for Diffractogram after DVS measurement versus initial: XRPD after humidity cycles
Method: Vapour sorption experiments were performed in the instrument SPSx-1 μ (Projekt Messtechnik, Ulm, Germany) at a temperature of 25° C., using the humidity cycles specified below: [table]

[2] = cited from earlier work
[3] = Solubility determination in aqueous solvents at 37° C.; format: physicochemical; conditions: for solubility at 60 min / solubility at 15 min: 37 °C, thermodynamic from solid
Method: Approximately 200 mg (exactly weighed) test substance was weighed into a glass vial, followed by addition of 2 mL solvent (water, 0.01M HCl, 20 mM NaOAc/HOAc pH 4.5, 50 mM KH2PO4 pH 6.8). A stirring bar was added, the vial was fixed in a block heater at 37° C. and the suspension was stirred with approximately 250 rpm. After 15 min and 1 hour samples were withdrawn, filtered through a 0.2 μm disposable filter, diluted with solvent and quantified by UHPLC/UV.

[4] = Solubility determination in organic solvents at room temperature; format: physicochemical; conditions: chloroform, 23 °C, organic solvent or mixture, thermodynamic from solid, 23° C. (room temperature)
Method: Solubilities in organic solvents (methanol, acetone, chloroform, DMSO) were determined similarly at room temperature with the difference that the suspensions were not stirred but treated with a vortex mixer for 20 s.

[5] = 25° C., humidity cycles 0-95% RH
[6] = 50 mM KH2PO4 buffer, pH 6.8, aqueous buffer, 50 mM KH2PO4 (pH 6.8)

## CC(=O)O.CC(=O)c1c(C)c2cnc(Nc3ccc(N4CCNCC4)cn3)nc2n(C2CCCC2)c1=O [Palbociclib acetic acid adduct Form 1]
[1]; [5]
  Sample weight change after the DVS measurement: −0.5%
[1]
  Diffractogram after DVS measurement versus initial: practically identical with the initial one

## CC(=O)c1c(C)c2cnc(Nc3ccc(N4CCNCC4)cn3)nc2n(C2CCCC2)c1=O [Palbociclib in form of the free base, 6-acetyl-8-cyclopentyl-5-methyl-2-{[5-(1-piperazinyl)-2-pyridinyl]amino}pyrido[2,3-d]pyrimidin-7(8H)-one]
[2]; at or below pH 4
  Solubility under acidic conditions (in words): good solubility
[2]
  Solubility in water (in words): practically insoluble

## CC(=O)c1c(C)c2cnc(Nc3ccc(N4CCNCC4)cn3)nc2n(C2CCCC2)c1=O [Palbociclib in present crystalline Form, 6-acetyl-8-cyclopentyl-5-methyl-2-{[5-(1-piperazinyl)-2-pyridinyl]amino}pyrido[2,3-d]pyrimidin-7(8H)-one]
[3]; 0.01M HCl, pH 2, simulated gastric fluid
  solubility at 60 min: 4300 µg/mL (≈ 9.61 mM)
[3]; 20 mM NaOAc/HOAc buffer, pH 4.5, aqueous buffer, 20 mM NaOAc/HOAc (pH 4.5)
  solubility at 15 min: 16200 µg/mL (≈ 36.2 mM)
[3]; [6]
  solubility at 15 min: 100 µg/mL (≈ 0.223 mM)
  solubility at 60 min: 100 µg/mL (≈ 0.223 mM)
[3]; aqueous solvents
  Solubility in aqueous solvents compared with Form A (in words): comparable to that of Form A
[4]
  solubility at 20 s: 86100 µg/mL (≈ 192 mM)
[1]; [5]
  Maximum water uptake: 1.3%
  Sample weight change after the DVS measurement: −0.2%
[1]
  Diffractogram after DVS measurement versus initial: practically identical with the initial one

## CC(=O)c1c(C)c2cnc(Nc3ccc(N4CCNCC4)cn3)nc2n(C2CCCC2)c1=O [dihydrochloride]
[2]
  Solubility in water (in words): good water solubility

## CC(=O)c1c(C)c2cnc(Nc3ccc(N4CCNCC4)cn3)nc2n(C2CCCC2)c1=O [hydrochloride]
[2]
  Solubility in water (in words): good water solubility
